This is an account of results in PubChem BioAssay AID1208 (EPA DSSTox, 2008).

The source made the active and inactive calls.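 How the source made its calls: active means at least one rat sex group has a carcinogenic potency value and tumor site recorded; inconclusive means only rat studies were judged inadequate by the national testing program; inactive means no potency or tumor site, with negative rat experiments.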

The series has as its system rat chronic carcinogenicity bioassay, TD50. As to the kind of experiment: DSSTox (CPDBAS) Carcinogenic Potency Database Summary Rat Bioassay Results. The note with it: for Potency: stronger effect = lower value. The gist of the method:
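The activity score maps log10(1/TD50_Rat_mmol) linearly onto 1–100; actives without a computed TD50, such as mixtures, receive 50. Source data are chronic rat carcinogenicity tests, using the most positive experiment for each sex.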

Setting [1] is: TD50_Rat_Note: no positive results, TargetSites_Rat_Female: no positive results.
Setting [2] is: TD50_Rat_Note: only experiment is NCI/NTP bioassay inadequate, TargetSites_Rat_Female: NTP bioassay inadequate.
[3] abbreviates: TD50_Rat_Note: TD50 is harmonic mean of more than one positive test.
[4] abbreviates: TargetSites_Rat_Female: no positive results.
[5] abbreviates: TD50_Rat_Note: no positive results.
[6] abbreviates: TD50_Rat_Note: TD50 is harmonic mean of more than one positive test, TargetSites_Rat_Female: stomach.

For the compound `CCC1C(=O)OCC1Cc1cncn1C` (stereo unspecified), the outcome under setting [1] is “inactive; no positive results”.

For the compound `C=CCCl`, the outcome under setting [2] was “ntp bioassay inadequate”. `[K+]`: the Potency (TD50_Rat_Note: TD50 is harmonic mean of more than one positive test, TargetSites_Rat_Female: oral cavity) is 440 mg/kg/day. On to `O=NN1CCCCCCC1`, for which the Potency under setting [3] was 0.0378 mg/kg/day.

As to `NN`, the Potency (TD50_Rat_Note: TD50 is harmonic mean of more than one positive test, greater than ten-fold variation among TD50 values for positive res, TargetSites_Rat_Female: liver, lung, nasal cavity) is 0.613 mg/kg/day. Take `OCCOCCO`: under setting [4], the Potency is 1660 mg/kg/day.

With `OC[P+](CO)(CO)CO`, the outcome under setting [1] was “inactive; no positive results”. Consider `C[C@H]1C(=O)O[C@@H]2CCN3CC=C(COC(=O)[C@](C)(O)[C@]1(C)O)[C@H]23`, for which the Potency under setting [3] is 0.94 mg/kg/day. `CC(=O)OCC(=O)[C@@]12N=C(C)O[C@@H]1C[C@H]1[C@@H]3CCC4=CC(=O)C=C[C@]4(C)[C@H]3[C@@H](O)C[C@@]12C`: the outcome (TD50_Rat_Note: TD50 not calculated by CPDB Source, TD50_Rat_mmol was not calculated, but Activiity Score is assigned value of 50 to ind, TargetSites_Rat_Female: no positive results) is “active; bone”. For `CN(C)C(=O)Nc1ccc(Cl)cc1`, the Potency under setting [4] is 131 mg/kg/day. On to `O=[N+]([O-])c1ccc(Cl)cc1`, for which the outcome under setting [5] is “inactive; no positive results”. Consider `O=NN(CCCC(F)(F)F)CCCC(F)(F)F`, for which, where the note is “TD50_Rat_Note: TD50 is harmonic mean of more than one positive test, TargetSites_Rat_Female: liver, lung”, the Potency is 0.748 mg/kg/day.

In the case of `CCBr`, the Potency (TD50_Rat_Note: no positive results are statistically significant, TargetSites_Rat_Female: no positive results) was 149 mg/kg/day.

Consider `O=[As](O)(O)O`, for which, for the setting “TD50_Rat_Note: no positive results, TargetSites_Rat_BothSexes: no positive results”, the outcome was inactive.

Turning to `Cn1cc(C(=O)[C@@H]2CCc3nc[nH]c3C2)c2ccccc21`, the outcome under setting [1] is “inactive; no positive results”.

Regarding `O=C(O)CCCc1ccc(N(CCCl)CCCl)cc1`, the Potency (TD50_Rat_Note: TD50 is harmonic mean of more than one positive test, TargetSites_Rat_Female: ear Zymbals gland, mammary gland, nervous system) is 0.896 mg/kg/day. Regarding `Clc1ccc(-c2cccc(Cl)c2Cl)c(Cl)c1`, the Potency (TD50_Rat_Note: TD50 is harmonic mean of more than one positive test, TD50_Rat_mmol was not calculated for this mixture, but Activiity S, TargetSites_Rat_Female: liver) was 11.8 mg/kg/day.

Regarding `CC(C)(C)O`, under setting [4], the Potency is 64.6 mg/kg/day. As to `C=C(C)C(=O)OC`, the outcome under setting [1] was “inactive; no positive results”.

Turning to `O=C(Nc1cccc2c(=O)cc(-c3nn[nH]n3)oc12)c1ccc(OCCCCc2ccccc2)cc1`, under setting [1], the outcome is “inactive; no positive results”. As to `O=C(O)c1cc(=O)[nH]c(=O)[nH]1`, under setting [5], the outcome was “inactive; no positive results”.

In the case of `CCNC(=O)N(CCN(C)C)N=O`, for the setting “TargetSites_Rat_Female: mammary gland, uterus”, the Potency was 0.704 mg/kg/day. Consider `CC(=O)Nc1cccc2c1-c1ccccc1C2`, for which the result under setting [1] was inactive.

As for `CN1C2CC[C@@H]1CC(NC(=O)c1cc(Cl)cc3c1OC(C)(C)C3)C2` (stereo partly specified), under setting [1], the outcome is “inactive; no positive results”.

With `Nc1ncn([C@@H]2O[C@H](CO)[C@@H](O)[C@H]2O)c(=O)n1`, the Potency (TD50_Rat_Note: positive test results only by intraperitoneal or intravenous injection, TargetSites_Rat_Female: NTP bioassay inadequate) was 0.17 mg/kg/day. With `O=C(O)COc1cc(Cl)c(Cl)cc1Cl`, the outcome under setting [1] is “inactive; no positive results”. As to `COC(=O)C1=CCCN(N=O)C1`, under setting [5], the outcome was “inactive; no positive results”. In the case of `ClC(Cl)=C(Cl)C(Cl)=C(Cl)Cl`, where the note is “TD50_Rat_Note: TD50 is harmonic mean of more than one positive test, TargetSites_Rat_Female: kidney”, the Potency is 65.8 mg/kg/day. Turning to `Cc1ccc(/C(=C\CN2CCCC2)c2ccccn2)cc1`, under setting [1], the outcome is “inactive; no positive results”.

Regarding `O=C(O)CC(O)(CC(=O)O)C(=O)O`, the outcome under setting [5] was “inactive; no positive results”. With `ClCC(Cl)CCl`, the Potency (TD50_Rat_Note: TD50 is harmonic mean of more than one positive test, TargetSites_Rat_Female: clitoral gland, ear Zymbals gland, mammary gland, oral cavity, stomach) is 1.35 mg/kg/day. Regarding `[Cl-].[Cl-].[Cl-].[Fe+3]`, under setting [1], the outcome is “inactive; no positive results”.

Regarding `CC1(C)S[C@@H]2[C@H](NC(=O)COc3ccccc3)C(=O)N2[C@H]1C(=O)O`, the outcome under setting [1] is “inactive; no positive results”. With `COc1cc2c(c3oc(=O)c4c(c13)CCOC4=O)C1C=COC1O2` (stereo unspecified), the Potency (TD50_Rat_Note: TD50 is harmonic mean of more than one positive test, TD50_Rat_mmol was not calculated for this mixture, but Activiity S) is 0.00299 mg/kg/day. With `C=CF`, the Potency (TD50_Rat_Note: TD50 is harmonic mean of more than one positive test, TargetSites_Rat_Female: ear Zymbals gland, liver, vascular system) was 20 mg/kg/day. As to `CCCCNC(N)=O`, the outcome under setting [1] is “inactive; no positive results”. The same measure, in the same setting: the value for `CN1C(C(=O)Nc2ccccn2)=C(O)c2sc(Cl)cc2S1(=O)=O` was “inactive; no positive results”.

As for `CC[C@H]1CN2CCc3cc(OC)c(OC)cc3[C@@H]2C[C@@H]1C[C@H]1NCCc2cc(OC)c(OC)cc21`, under setting [2], the outcome is reported as “ntp bioassay inadequate”. Turning to `CCCCCCCCCCCCCCCC(=O)CC(=O)CCCCCCCCCCCCCCC`, the result under setting [1] was inactive.

As to `O=C1NC(=O)C(c2ccccc2)(c2ccccc2)N1`, the outcome under setting [1] was “inactive; no positive results”. Regarding `CC/C(=C(/CC)c1ccc(O)cc1)c1ccc(O)cc1`, the Potency (TD50_Rat_Note: TD50 is harmonic mean of more than one positive test, greater than ten-fold variation among TD50 values for positive res, TargetSites_Rat_Female: liver, pituitary gland) is 0.223 mg/kg/day. `NC(=O)CCCCn1ccc(NC(N)=NCC(F)(F)F)n1`: under setting [6], the Potency was 1170 mg/kg/day.

Consider `c1ccc2c(c1)Oc1ccccc1O2`, for which the outcome under setting [1] is “inactive; no positive results”. With `O=C(O)c1ccc([N+](=O)[O-])cc1`, the Potency (TargetSites_Rat_Female: clitoral gland) is 287 mg/kg/day. On to `Oc1ccc(Cl)cc1Cl`, for which the outcome under setting [1] is “inactive; no positive results”. Regarding `Cc1cccc(N)c1`, the outcome under setting [5] was “inactive; no positive results”.

For `Nc1nc(-c2ccc([N+](=O)[O-])o2)cs1`, the Potency (TargetSites_Rat_Female: stomach, urinary bladder) was 5.85 mg/kg/day.

As for `CC(=O)CN(N=O)C(=O)NCCCl`, the outcome under setting [1] is “inactive; no positive results”. Still for that read-out and setting: in the case of `CC(C)(c1ccc(O)cc1)c1ccc(O)cc1` it was “inactive; no positive results”; in that of `CC(O)CCl` (stereo unspecified), “inactive; no positive results”; in that of `CCN(CC)C(=S)SSC(=S)N(CC)CC`, “inactive; no positive results”.

In the case of `C[C@]12C=CC(=O)C=C1CC[C@@H]1[C@@H]2[C@@H](O)C[C@@]2(C)[C@H]1CC[C@]2(O)C(=O)CO`, the Potency under setting [4] was 1.53 mg/kg/day. As to `CCNNC(=O)[C@@H]1[C@H](c2cc(OC)c(OC)c(OC)c2)c2cc3c(cc2[C@H](O)[C@H]1CO)OCO3`, the outcome under setting [5] is “inactive; no positive results”. Still for that read-out and setting: in the case of `Cc1ccc(N)cc1` it was “inactive; no positive results”. Consider `Nc1ccc([N+](=O)[O-])cc1`, for which the outcome under setting [1] was “inactive; no positive results”. With `ClC1(Cl)C2(Cl)C3(Cl)C4(Cl)C(Cl)(Cl)C5(Cl)C3(Cl)C1(Cl)C5(Cl)C24Cl` (stereo unspecified), the Potency (TD50_Rat_Note: TD50 is harmonic mean of more than one positive test, TargetSites_Rat_Female: hematopoietic system, liver) was 1.77 mg/kg/day. On to `Nc1ccc(Nc2ccccc2)cc1`, for which, under setting [1], the outcome is “inactive; no positive results”.

Take `CN(N=O)C(N)=O`: the Potency was 0.0927 mg/kg/day. Regarding `CC(=O)OC[C@H]1O[C@H](O[C@]2(COC(C)=O)O[C@H](COC(=O)C(C)C)[C@@H](OC(=O)C(C)C)[C@@H]2OC(=O)C(C)C)[C@H](OC(=O)C(C)C)[C@@H](OC(=O)C(C)C)[C@@H]1OC(=O)C(C)C`, the outcome under setting [1] was “inactive; no positive results”. Regarding `CN(N=O)C(=O)c1ccccc1C(=O)N(C)N=O`, under setting [5], the outcome is “inactive; no positive results”.

For `NC(N)=Nc1nc(CSCCNc2nsnc2N)cs1`, the Potency under setting [6] is 4990 mg/kg/day. Turning to `O=[N+]([O-])c1ccc(Oc2ccc(Cl)cc2Cl)cc1`, the Potency (TargetSites_Rat_Female: pancreas) was 420 mg/kg/day. For `CC/C(C)=N/O`, the Potency under setting [4] was 74.5 mg/kg/day. `CCOP(=S)(OCC)Oc1ccc2c(C)c(Cl)c(=O)oc2c1`: the outcome under setting [1] is “inactive; no positive results”.

Take `FC(F)(Cl)Cl`: under setting [1], the outcome is “inactive; no positive results”. `COC(N)=O`: the Potency (TD50_Rat_Note: TD50 is harmonic mean of more than one positive test, greater than ten-fold variation among TD50 values for positive res, TargetSites_Rat_Female: liver) is 56.6 mg/kg/day.

Consider `O=CNNc1nc(-c2ccco2)cs1`, for which the outcome under setting [1] was inactive. `CCCN=[N+]([O-])CCC`: the Potency (TD50_Rat_Note: harmonic mean of TD50 includes a value for upper 99% confidence limit from study with 100% tumor incidence but no lifeta) was 0.000241 mg/kg/day.

In the case of `O=C1O[C@@H](CN2CCOCC2)CN1/N=C/c1ccc([N+](=O)[O-])o1`, for the setting “TargetSites_Rat_Female: hematopoietic system, kidney, mammary gland”, the Potency was 6.33 mg/kg/day. Consider `COc1cc2c(c3oc(=O)c4c(c13)CC[C@H]4O)[C@@H]1C=CO[C@H]1O2`, for which the Potency is 0.00247 mg/kg/day.

Take `Nc1ccccc1C(=O)O`: the outcome under setting [1] was “inactive; no positive results”. Regarding `CC(C)Oc1ccccc1OC(=O)N(C)N=O`, the Potency is 0.364 mg/kg/day. `CCOC(=O)[C@]1(c2ccccc2)CCC=C[C@H]1N(C)C`: the outcome under setting [1] is “inactive; no positive results”.

Take `C=CCc1ccc(O)c(OC)c1`: under setting [1], the outcome was “inactive; no positive results”.

As for `ClC1=C(Cl)C(Cl)(Cl)C(Cl)=C1Cl`, the outcome under setting [1] is “inactive; no positive results”. On the same count and under the same terms, the value for `ClCC(Cl)(Cl)Cl` was “inactive; no positive results”.
